Test results from publication PMC9927415, “Tyrosine Kinase Inhibitors Display Potent Activity against Cryptosporidium parvum” (Microbiology Spectrum, 2022).

Experiments:
[1] = target: T1, PAK7/PAK5 (Homo sapiens, UniProt Q9P286); assay: KINOMEscan competitive binding; details: n=1, read-out: Percent inhibition, PAK7/PAK5
T1 construct: purchased DiscoverX (KINOMEscan)

[2] = target: T2, SLK (Homo sapiens, UniProt Q9H2G2); assay: KINOMEscan competitive binding; details: n=1, read-out: Percent inhibition, SLK
T2 construct: purchased DiscoverX (KINOMEscan)

[3] = target: T3, SYK (Homo sapiens, UniProt P43405); assay: KINOMEscan competitive binding; details: n=1, read-out: Percent inhibition, SYK
T3 construct: purchased DiscoverX (KINOMEscan)

[4] = target: T4, TIE2 (Homo sapiens, UniProt Q02763); assay: KINOMEscan competitive binding; details: n=1, read-out: Percent inhibition, TIE2
T4 construct: purchased DiscoverX (KINOMEscan)
T4 sequence (Q02763 23-1124): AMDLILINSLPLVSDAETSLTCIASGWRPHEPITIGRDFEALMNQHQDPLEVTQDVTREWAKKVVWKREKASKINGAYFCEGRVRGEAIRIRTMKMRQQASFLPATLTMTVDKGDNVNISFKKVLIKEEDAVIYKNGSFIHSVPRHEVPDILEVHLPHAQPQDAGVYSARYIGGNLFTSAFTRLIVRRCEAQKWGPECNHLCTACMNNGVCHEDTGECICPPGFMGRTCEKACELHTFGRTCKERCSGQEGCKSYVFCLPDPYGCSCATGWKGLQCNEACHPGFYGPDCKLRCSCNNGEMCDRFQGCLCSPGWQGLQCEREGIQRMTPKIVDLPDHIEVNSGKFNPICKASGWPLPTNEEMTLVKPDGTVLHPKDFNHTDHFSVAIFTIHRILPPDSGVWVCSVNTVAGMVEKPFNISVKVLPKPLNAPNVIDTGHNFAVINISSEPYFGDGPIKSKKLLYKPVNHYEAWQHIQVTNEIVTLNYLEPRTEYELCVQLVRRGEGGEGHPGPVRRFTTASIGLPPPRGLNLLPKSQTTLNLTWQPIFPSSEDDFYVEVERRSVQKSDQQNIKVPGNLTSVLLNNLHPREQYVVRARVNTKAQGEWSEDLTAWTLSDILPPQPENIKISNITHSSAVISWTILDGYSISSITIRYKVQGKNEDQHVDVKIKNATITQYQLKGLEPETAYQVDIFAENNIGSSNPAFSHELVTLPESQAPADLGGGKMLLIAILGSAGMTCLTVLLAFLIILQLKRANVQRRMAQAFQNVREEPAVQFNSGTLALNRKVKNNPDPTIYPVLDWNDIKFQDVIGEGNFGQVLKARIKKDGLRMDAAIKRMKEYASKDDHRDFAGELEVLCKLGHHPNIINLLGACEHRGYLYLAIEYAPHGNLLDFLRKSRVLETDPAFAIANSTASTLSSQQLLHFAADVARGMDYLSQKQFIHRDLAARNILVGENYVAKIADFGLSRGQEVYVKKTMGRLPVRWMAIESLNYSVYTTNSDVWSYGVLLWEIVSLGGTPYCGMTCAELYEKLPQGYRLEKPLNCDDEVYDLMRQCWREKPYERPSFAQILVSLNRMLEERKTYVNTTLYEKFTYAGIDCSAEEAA

[5] = target: T5, PAK1 (Homo sapiens, UniProt Q13153); assay: KINOMEscan competitive binding; details: n=1, read-out: Percent inhibition, PAK1
T5 construct: purchased DiscoverX (KINOMEscan)
T5 sequence (Q13153 whole entry): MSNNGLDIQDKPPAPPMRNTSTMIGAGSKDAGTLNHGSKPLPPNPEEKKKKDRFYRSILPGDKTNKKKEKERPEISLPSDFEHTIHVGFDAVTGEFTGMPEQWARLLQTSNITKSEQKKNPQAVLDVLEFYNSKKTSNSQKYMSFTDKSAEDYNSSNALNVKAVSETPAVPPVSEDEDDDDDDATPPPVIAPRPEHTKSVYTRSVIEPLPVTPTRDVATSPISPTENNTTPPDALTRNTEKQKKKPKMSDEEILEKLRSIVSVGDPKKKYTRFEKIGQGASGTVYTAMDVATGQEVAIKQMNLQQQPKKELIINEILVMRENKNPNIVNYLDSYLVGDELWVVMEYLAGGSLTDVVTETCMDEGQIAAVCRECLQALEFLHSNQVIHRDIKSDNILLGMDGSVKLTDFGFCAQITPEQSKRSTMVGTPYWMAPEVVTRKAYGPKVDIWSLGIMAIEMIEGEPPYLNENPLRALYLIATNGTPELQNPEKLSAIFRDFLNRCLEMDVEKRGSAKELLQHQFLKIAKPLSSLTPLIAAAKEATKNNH

[6] = target: T6, PDPK1 (Homo sapiens, UniProt O15530); assay: KINOMEscan competitive binding; details: n=1, read-out: Percent inhibition, PDPK1
T6 construct: purchased DiscoverX (KINOMEscan)
T6 sequence (O15530 1-556): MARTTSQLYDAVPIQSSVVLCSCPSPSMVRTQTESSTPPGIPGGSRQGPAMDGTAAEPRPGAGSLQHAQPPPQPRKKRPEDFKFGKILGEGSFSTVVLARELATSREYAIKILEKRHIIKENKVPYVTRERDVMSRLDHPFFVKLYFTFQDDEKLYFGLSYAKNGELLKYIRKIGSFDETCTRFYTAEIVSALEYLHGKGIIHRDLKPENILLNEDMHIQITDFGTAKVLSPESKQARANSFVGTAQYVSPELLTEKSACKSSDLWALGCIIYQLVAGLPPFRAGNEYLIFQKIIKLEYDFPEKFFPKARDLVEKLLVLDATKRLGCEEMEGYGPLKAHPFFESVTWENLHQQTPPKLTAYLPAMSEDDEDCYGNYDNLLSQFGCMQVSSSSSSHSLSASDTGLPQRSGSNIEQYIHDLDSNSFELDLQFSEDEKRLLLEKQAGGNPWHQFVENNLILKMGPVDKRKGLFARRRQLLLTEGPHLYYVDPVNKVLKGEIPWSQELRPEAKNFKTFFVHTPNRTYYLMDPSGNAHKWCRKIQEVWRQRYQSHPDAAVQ

[7] = target: T7, PAK2 (Homo sapiens, UniProt Q13177); assay: KINOMEscan competitive binding; details: n=1, read-out: Percent inhibition, PAK2
T7 construct: purchased DiscoverX (KINOMEscan)
T7 sequence (Q13177 whole entry): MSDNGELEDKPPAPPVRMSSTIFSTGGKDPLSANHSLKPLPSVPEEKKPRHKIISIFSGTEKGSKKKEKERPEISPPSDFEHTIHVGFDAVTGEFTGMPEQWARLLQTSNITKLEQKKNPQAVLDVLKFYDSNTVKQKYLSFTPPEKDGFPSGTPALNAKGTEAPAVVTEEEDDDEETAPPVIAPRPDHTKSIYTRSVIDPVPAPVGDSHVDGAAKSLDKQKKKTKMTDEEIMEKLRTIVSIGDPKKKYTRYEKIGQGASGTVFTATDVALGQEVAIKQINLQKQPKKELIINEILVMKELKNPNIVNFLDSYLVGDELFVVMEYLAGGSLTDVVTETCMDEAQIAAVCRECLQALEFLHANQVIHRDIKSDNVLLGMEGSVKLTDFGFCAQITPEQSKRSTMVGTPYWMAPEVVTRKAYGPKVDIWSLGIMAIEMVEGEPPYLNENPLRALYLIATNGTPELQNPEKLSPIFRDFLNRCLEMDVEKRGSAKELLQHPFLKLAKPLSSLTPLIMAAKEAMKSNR

[8] = target: T8, RPS6KA6(Kin.Dom.1) (Homo sapiens, UniProt Q9UK32); assay: KINOMEscan competitive binding; details: n=1, read-out: Percent inhibition, RPS6KA6(Kin.Dom.1)
T8 construct: RPS6KA6(Kin.Dom.1); purchased DiscoverX (KINOMEscan)
T8 sequence (Q9UK32 1-400 limits assumed): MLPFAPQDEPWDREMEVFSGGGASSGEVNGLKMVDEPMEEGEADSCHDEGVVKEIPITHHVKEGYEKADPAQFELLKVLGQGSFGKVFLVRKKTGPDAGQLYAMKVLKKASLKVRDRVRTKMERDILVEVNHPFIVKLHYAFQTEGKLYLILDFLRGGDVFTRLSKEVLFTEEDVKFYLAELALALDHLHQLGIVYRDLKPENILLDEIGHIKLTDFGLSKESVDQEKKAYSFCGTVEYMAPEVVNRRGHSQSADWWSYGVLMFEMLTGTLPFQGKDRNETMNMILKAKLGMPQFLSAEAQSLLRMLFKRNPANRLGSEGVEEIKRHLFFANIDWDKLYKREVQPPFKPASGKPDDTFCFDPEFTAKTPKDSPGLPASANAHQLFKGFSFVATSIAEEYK

[9] = target: T9, RAF1 (Homo sapiens, UniProt P04049); assay: KINOMEscan competitive binding; details: n=1, read-out: Percent inhibition, RAF1
T9 construct: purchased DiscoverX (KINOMEscan)

[10] = target: T10, PAK4 (Homo sapiens, UniProt O96013); assay: KINOMEscan competitive binding; details: n=1, read-out: Percent inhibition, PAK4
T10 construct: purchased DiscoverX (KINOMEscan)
T10 sequence (O96013 whole entry): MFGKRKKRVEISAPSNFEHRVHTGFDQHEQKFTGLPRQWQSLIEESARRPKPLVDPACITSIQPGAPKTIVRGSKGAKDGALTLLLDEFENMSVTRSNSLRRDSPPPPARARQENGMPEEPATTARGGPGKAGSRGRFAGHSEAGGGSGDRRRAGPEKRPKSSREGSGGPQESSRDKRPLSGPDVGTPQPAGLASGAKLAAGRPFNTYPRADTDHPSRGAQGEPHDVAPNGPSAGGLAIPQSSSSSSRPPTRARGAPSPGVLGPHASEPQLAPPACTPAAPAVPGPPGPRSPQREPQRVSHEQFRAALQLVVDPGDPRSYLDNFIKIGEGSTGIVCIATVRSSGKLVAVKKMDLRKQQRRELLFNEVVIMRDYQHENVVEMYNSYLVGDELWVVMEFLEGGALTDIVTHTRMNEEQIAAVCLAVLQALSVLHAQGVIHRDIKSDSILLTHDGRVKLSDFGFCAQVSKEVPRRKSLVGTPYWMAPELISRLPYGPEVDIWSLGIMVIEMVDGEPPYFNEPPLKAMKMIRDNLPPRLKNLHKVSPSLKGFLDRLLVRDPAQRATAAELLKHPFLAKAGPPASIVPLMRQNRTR

[11] = target: T11, PAK3 (Homo sapiens, UniProt O75914); assay: KINOMEscan competitive binding; details: n=1, read-out: Percent inhibition, PAK3
T11 construct: purchased DiscoverX (KINOMEscan)
T11 sequence (O75914 whole entry): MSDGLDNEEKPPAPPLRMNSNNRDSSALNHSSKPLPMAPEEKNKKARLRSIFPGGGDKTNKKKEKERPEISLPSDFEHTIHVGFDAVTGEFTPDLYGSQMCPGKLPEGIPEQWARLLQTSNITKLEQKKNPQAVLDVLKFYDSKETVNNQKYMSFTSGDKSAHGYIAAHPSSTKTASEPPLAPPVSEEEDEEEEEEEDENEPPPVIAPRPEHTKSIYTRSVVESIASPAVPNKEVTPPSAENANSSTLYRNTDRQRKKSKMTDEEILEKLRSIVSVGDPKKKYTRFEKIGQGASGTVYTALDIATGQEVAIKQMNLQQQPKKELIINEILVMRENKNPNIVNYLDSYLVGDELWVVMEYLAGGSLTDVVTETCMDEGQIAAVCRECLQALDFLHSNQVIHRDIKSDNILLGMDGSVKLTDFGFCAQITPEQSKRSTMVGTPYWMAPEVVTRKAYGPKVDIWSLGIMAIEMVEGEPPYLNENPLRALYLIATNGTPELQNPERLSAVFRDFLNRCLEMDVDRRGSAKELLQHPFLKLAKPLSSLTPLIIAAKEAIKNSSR

[12] = target: T12, RPS6KA5(Kin.Dom.1) (Homo sapiens, UniProt O75582); assay: KINOMEscan competitive binding; details: n=1, read-out: Percent inhibition, RPS6KA5(Kin.Dom.1)
T12 construct: RPS6KA5(Kin.Dom.1); purchased DiscoverX (KINOMEscan)
T12 sequence (O75582 1-387 limits assumed): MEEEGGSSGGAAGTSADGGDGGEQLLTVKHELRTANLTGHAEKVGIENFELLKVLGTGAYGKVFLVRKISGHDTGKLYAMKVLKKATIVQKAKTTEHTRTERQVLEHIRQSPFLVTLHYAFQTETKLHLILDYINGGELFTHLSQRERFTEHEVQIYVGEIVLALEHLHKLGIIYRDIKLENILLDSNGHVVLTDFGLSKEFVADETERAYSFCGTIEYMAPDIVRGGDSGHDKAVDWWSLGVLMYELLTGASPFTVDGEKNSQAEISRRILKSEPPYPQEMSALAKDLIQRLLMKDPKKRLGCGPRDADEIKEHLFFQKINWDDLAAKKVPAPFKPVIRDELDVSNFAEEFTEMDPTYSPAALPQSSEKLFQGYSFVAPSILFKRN

[13] = target: T13, PTK6 (Homo sapiens, UniProt Q13882); assay: KINOMEscan competitive binding; details: n=1, read-out: Percent inhibition, PTK6
T13 construct: purchased DiscoverX (KINOMEscan)
T13 sequence (Q13882 whole entry): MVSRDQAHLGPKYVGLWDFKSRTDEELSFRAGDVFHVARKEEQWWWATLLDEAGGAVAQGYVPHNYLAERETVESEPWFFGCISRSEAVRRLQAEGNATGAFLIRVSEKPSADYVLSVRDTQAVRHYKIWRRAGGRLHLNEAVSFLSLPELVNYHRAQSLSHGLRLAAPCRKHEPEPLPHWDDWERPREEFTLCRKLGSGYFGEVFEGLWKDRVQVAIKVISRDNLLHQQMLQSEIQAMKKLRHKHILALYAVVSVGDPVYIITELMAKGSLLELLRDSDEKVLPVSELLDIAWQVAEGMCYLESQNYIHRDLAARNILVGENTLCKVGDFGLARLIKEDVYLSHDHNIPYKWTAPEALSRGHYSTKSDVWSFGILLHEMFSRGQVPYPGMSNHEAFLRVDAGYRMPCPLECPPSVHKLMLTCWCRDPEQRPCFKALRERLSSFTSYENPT

[14] = target: T14, PHKG1 (Homo sapiens, UniProt Q16816); assay: KINOMEscan competitive binding; details: n=1, read-out: Percent inhibition, PHKG1
T14 construct: purchased DiscoverX (KINOMEscan)
T14 sequence (Q16816 whole entry): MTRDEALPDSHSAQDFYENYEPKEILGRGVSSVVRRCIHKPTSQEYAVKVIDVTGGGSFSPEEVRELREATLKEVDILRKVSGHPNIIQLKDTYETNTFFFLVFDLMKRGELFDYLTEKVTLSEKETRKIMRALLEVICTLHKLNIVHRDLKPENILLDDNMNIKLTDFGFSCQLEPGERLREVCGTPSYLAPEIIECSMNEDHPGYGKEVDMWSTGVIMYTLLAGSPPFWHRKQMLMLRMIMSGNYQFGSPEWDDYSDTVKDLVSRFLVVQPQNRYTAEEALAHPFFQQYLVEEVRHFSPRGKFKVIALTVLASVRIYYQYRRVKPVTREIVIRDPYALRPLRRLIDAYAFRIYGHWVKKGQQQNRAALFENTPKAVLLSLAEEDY

[15] = target: T15, ZAP70 (Homo sapiens, UniProt P43403); assay: KINOMEscan competitive binding; details: n=1, read-out: Percent inhibition, ZAP70
T15 construct: purchased DiscoverX (KINOMEscan)
T15 sequence (P43403 1-619): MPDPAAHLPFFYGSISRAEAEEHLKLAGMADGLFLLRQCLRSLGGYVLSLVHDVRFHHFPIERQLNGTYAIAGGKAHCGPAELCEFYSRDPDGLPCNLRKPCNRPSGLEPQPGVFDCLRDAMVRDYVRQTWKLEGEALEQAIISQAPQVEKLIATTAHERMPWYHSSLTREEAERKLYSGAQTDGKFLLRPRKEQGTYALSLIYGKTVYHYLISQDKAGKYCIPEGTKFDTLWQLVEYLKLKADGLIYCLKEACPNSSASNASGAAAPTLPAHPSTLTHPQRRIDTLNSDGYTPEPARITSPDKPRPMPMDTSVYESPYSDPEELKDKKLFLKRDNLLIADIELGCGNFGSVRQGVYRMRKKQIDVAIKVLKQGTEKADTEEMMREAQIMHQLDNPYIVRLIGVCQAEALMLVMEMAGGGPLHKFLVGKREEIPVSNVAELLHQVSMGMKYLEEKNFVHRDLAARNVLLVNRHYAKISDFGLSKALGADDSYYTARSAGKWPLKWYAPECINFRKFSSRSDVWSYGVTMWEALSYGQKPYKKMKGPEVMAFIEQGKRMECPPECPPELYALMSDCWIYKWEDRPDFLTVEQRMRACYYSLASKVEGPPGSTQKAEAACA

[16] = Host cell cytotoxicity assay (CellTiter-Glo); details: human, HepG2 cells
Experimental: HepG2 cells were grown in Eagle’s Minimum Essential Medium (MEM) containing 10% FBS, 1% nonessential amino acids (NEAA) and 1% penicillin/streptomycin to >50% confluence prior to harvesting. Cells were suspended in media and 3000 cells per well were added onto 384-well clear bottom plates. Prior to addition of the cell suspension, the screening compounds (250 nl) were predispensed into plates using a liquid handler. Plates were incubated for 48 h at 37°C, 5% CO2. After 48 h of incubation, plates were equilibrated at room temperature for 30 min before luminescence signal was measured using CellTiter-Glo Reagent. Plates were kept at room temperature for 10 min to stabilize the signal and then read using a ViewLux luminescence reader. The HepG2 CC50 (from the host cell cytotoxicity assays) and C. parvum mean EC50 (from parasite growth inhibition assays) values were used to calculate selectivity index.

[17] = target: T16, PRKCH (Homo sapiens, UniProt P24723); assay: KINOMEscan competitive binding; details: n=1, read-out: Percent inhibition, PRKCH
T16 construct: purchased DiscoverX (KINOMEscan)

For `CN1CCN(c2ccc(Nc3nccc(-c4cnn5ncccc45)n3)cc2C#N)CC1` [Compound 1], the inhibition at 10 µM [1] was 99.2%, the inhibition at 10 µM [2] was 98.1% and the inhibition at 10 µM [3] was 78.3%. It also gave an inhibition at 10 µM [4] of 0%, an inhibition at 10 µM [5] of 99.8% and an inhibition at 10 µM [6] of 0%. It also gave an inhibition at 10 µM [7] of 95.4%, an inhibition at 10 µM [8] of 0% and an inhibition at 10 µM [9] of 0%. For the same molecule, the inhibition at 10 µM [10] was 95.7%, the inhibition at 10 µM [11] was 85.3% and the inhibition at 10 µM [12] was 65.7%. For the same molecule, the inhibition at 10 µM [13] was 77%, the inhibition at 10 µM [14] was 88.3% and the inhibition at 10 µM [15] was 0%. For the same molecule, the CC50 at 48 h [16] was greater than 100 µM and the inhibition at 10 µM [17] was 83.4%.
`COc1ccc(Nc2nccc(-c3cnn4ncccc34)n2)cc1` [Compound 2] gave an inhibition at 10 µM [1] of 72.8%, an inhibition at 10 µM [2] of 77.9% and an inhibition at 10 µM [3] of 80.9%. The inhibition at 10 µM [4] was 0%, the inhibition at 10 µM [5] was 0% and the inhibition at 10 µM [6] was 0%. For the same molecule, the inhibition at 10 µM [7] was 0%, the inhibition at 10 µM [8] was 0% and the inhibition at 10 µM [9] was 0%. The inhibition at 10 µM [10] was 0%, the inhibition at 10 µM [11] was 0% and the inhibition at 10 µM [12] was 0%. For the same molecule, the inhibition at 10 µM [13] was 0%, the inhibition at 10 µM [14] was 0% and the inhibition at 10 µM [15] was 0%. It also gave a CC50 at 48 h [16] greater than 100 µM and an inhibition at 10 µM [17] of 0%.
`Cc1ccc(O)cc1Nc1ccnc(Nc2cccc(C(N)=O)c2)n1` [Compound 3] showed an inhibition at 10 µM [1] of 67.6%, an inhibition at 10 µM [2] of 83.5% and an inhibition at 10 µM [4] of 97.5%. For the same molecule, the inhibition at 10 µM [5] was 79.3%, the inhibition at 10 µM [6] was 0% and the inhibition at 10 µM [7] was 93.4%. It also gave an inhibition at 10 µM [8] of 0%, an inhibition at 10 µM [9] of 74.3% and an inhibition at 10 µM [10] of 0%. It also gave an inhibition at 10 µM [11] of 0%, an inhibition at 10 µM [12] of 0% and an inhibition at 10 µM [13] of 100%. The inhibition at 10 µM [14] was 0%, the inhibition at 10 µM [15] was 0% and the CC50 at 48 h [16] was 33.1 µM. It also gave an inhibition at 10 µM [17] of 0%.
Molecule `Cc1ccc(O)cc1N(C)c1ccnc(Nc2cccc(S(N)(=O)=O)c2)n1` [Compound 4] has an inhibition at 10 µM [1] of 98.5%, an inhibition at 10 µM [2] of 99.5% and an inhibition at 10 µM [3] of 98.7%. It also gave an inhibition at 10 µM [4] of 100%, an inhibition at 10 µM [5] of 98.5% and an inhibition at 10 µM [6] of 0%. For the same molecule, the inhibition at 10 µM [7] was 100%, the inhibition at 10 µM [8] was 0% and the inhibition at 10 µM [9] was 94.2%. For the same molecule, the inhibition at 10 µM [10] was 0%, the inhibition at 10 µM [11] was 0% and the inhibition at 10 µM [12] was 0%. The inhibition at 10 µM [13] was 100%, the inhibition at 10 µM [14] was 0% and the inhibition at 10 µM [15] was 0%. It also gave an inhibition at 10 µM [17] of 0%.
